Results from PubChem BioAssay (NCI).
Values joined by “and” are separate entries in the source; they are usually repeats but may differ in a detail not shown here. Equal entries are not always repeated.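 Five compound concentrations were applied to cells in 96-well plates for 48 hours; endpoints were derived by simple linear interpolation of the resulting dose-response curve. At the GI50, growth is halved. TGI: total growth inhibition.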

Legend:
Assay in all cases: DTP human tumour cell line panel, 48 h
MDA-N = system: MDA-N
SN12C renal = system: SN12C renal
DU-145 prostate = system: DU-145 prostate
SK-MEL-5 melanoma = system: SK-MEL-5 melanoma
COLO 205 colon = system: COLO 205 colon
TK-10 renal = system: TK-10 renal
SW-620 colon = system: SW-620 colon
KM12 colon = system: KM12 colon
T-47D breast = system: T-47D breast
786-0 renal = system: 786-0 renal
UACC-257 melanoma = system: UACC-257 melanoma

| Structure (SMILES) | TGI (MDA-N) [µM] | TGI (SN12C renal) [µM] | TGI (DU-145 prostate) [µM] | TGI (SK-MEL-5 melanoma) [µM] | TGI (COLO 205 colon) [µM] | TGI (TK-10 renal) [µM] | TGI (SW-620 colon) [µM] | TGI (KM12 colon) | TGI (T-47D breast) [µM] | TGI (786-0 renal) [µM] | TGI (UACC-257 melanoma) [µM] | GI50 (UACC-257 melanoma) [µM] |
| --- | --- | --- | --- | --- | --- | --- | --- | --- | --- | --- | --- | --- |
| COc1ccc(NC2=NCCO2)c2ccccc12 | > 10 | > 10 | > 10 | > 10 | > 10 | > 10 | > 10 | > 10 µM | > 10 |  |  |  |
| S=C1C=C(c2ccccc2)Sc2ccccc2N1 | > 100 | > 100 | > 100 | > 100 | > 100 | > 100 |  | > 100 µM | > 100 | > 100 | > 100 |  |
| NNC(=O)c1n[nH]nc1SSc1n[nH]nc1C(=O)NN | > 100 | > 100 | > 100 | > 100 | > 100 | > 100 | > 100 | > 100 µM |  | > 100 | > 100 |  |
| COc1ccc(C)cc1NC(=S)N/N=C/c1ccc(SC)cc1 | > 100 | > 100 | > 100 | 51.9 | > 100 |  | > 100 | > 100 µM | > 100 | > 100 |  |  |
| O=c1c([Se]c2coc3ccccc3c2=O)coc2ccccc12 |  | 28.2 |  | 29.9 | 29.7 | 31.6 | 34.3 | 23.4 µM |  | 32.9 | 31.3 |  |
| C[C@@H]1C(O)CC[C@H](C)C12CC=CC2=O (stereo partly drawn) | > 100 | > 100 | > 100 | > 100 | > 100 | > 100 | > 100 |  | > 100 | > 100 | > 100 |  |
| COc1nc(=O)n(C2CC(N=[N+]=[N-])C(CO)O2)cc1C (stereo not drawn) | > 100 | > 100 | > 100 | > 100 |  | > 100 | > 100 | > 100 µM | > 100 | > 100 | > 100 |  |
| CC(C)(C)OC(=O)NC(Cc1ccc([N+](=O)[O-])cc1)C(=O)NC(CCCCNC(=O)OCc1ccccc1)C(=O)ON1C(=O)CCC1=O (stereo not drawn) | > 100 | > 100 | > 100 | > 100 | > 100 | > 100 | > 100 | > 100 µM |  | > 100 |  |  |
| Cc1ccc2[nH]c3c(C)c4ccncc4c(C)c3c2c1 |  | 2.39 |  | 2.92 | 2.23 | 14.2 | 1.7 | 2.12 µM |  |  | 2.94 |  |
| COc1ccc2c(c1)CC[C@@H]1C2CC[C@]2(C)C(=O)NC(=O)CC12 (stereo partly drawn) |  | > 100 |  | > 100 | > 100 | > 100 | > 100 | > 100 µM |  | > 100 | > 100 |  |
| CSc1c(C#N)c2n(c3ccccc3[n+]2C)c2ncccc12 | 58.6 | 67.5 | 47.2 | 30.5 | 54.2 |  | > 100 | > 100 µM | 80 | 50.3 |  |  |
| CCN(CC)CCCNC(=O)Cc1ccccc1Nc1c(Cl)cccc1Cl |  | 28.5 |  | 14.1 | 28.3 | 26.8 | 32.8 | 39.3 µM |  | 21.8 | 13.2 |  |
| CC(=O)c1cccc(NC2C(N)C(NC(=O)N(C)C)(C(C)O)C(C)(O)C2(O)COC(=O)c2c(C)cccc2O)c1 (stereo not drawn) | 0.0135 | 0.106 | 0.0202 | 0.0227 |  | 0.118 | 1.75 | 0.213 µM and 0.164 µM | 0.00834 | 0.0146 |  | 0.0314 |
| Cc1ccc(/C=N/Nc2ncccn2)s1 | > 100 | > 100 |  | > 100 | > 100 | > 100 | > 100 | > 100 µM | > 100 | > 100 | > 100 |  |
| COc1ccc(C2S/C(=C\c3ccc(OC)cc3OC)C(=O)N2NC(=O)Cc2ccccc2)cc1 (stereo not drawn) |  | > 100 |  | > 100 | > 100 | > 100 | > 100 | > 100 µM |  | > 100 | > 100 |  |
| CSC(=NCCN=C(NS(=O)(=O)c1ccc(Cl)cc1)SC)NS(=O)(=O)c1ccc(Cl)cc1 | > 100 | > 100 | > 100 |  | > 100 | > 100 | > 100 |  |  | > 100 | > 100 |  |
| Cc1nc(-c2nc([N+](=O)[O-])c([N+](=O)[O-])[nH]2)cs1 |  | > 100 |  | > 100 | > 100 | > 100 | > 100 | > 100 µM |  |  | > 100 |  |
| CC(=O)c1cn(-c2ccc(Cl)cc2)c(=O)c2c(N)n[nH]c12 |  |  | > 100 | > 100 | > 100 | > 100 | > 100 | > 100 µM | > 100 | > 100 | > 100 |  |
| CC12ON=C(c3ccccc3)N1C=CN1C(c3ccccc3)=NOC12 (stereo not drawn) | > 100 |  | > 100 | > 100 | > 100 | > 100 |  | > 100 µM |  | > 100 | > 100 |  |
| C=C(Cl)C(Cl)(CBr)CCC(Cl)C(C)(C)Cl (stereo not drawn) | 7.55 | 22.5 | 3.31 | 24.7 | 10.5 | 2.71 | 4.75 | 1.94 µM |  | 1.32 | 3.79 |  |
| COc1cc2c(cc1OC)C(Cl)C(c1cc(OC)c(OC)c(OC)c1)=C2Cl (stereo not drawn) |  | 36.6 |  | 30.5 | 32.9 | 62.2 | 46.1 |  |  |  |  |  |
| CSCCC(NC(c1ccccc1)c1ccccc1)[P+](=O)O (stereo not drawn) |  | > 100 | > 100 | > 100 | > 100 | > 100 | > 100 | > 100 µM | > 100 | > 100 | > 100 |  |
| CCN(CC)CCNc1ccc(C)c2sc3ccc(O)cc3c(=O)c12 |  | 1.85 |  | 2.3 | 3.27 | 9.95 | 2.38 | 3.39 µM |  | 2.01 | 2.99 |  |
| CN1CCN(c2ccc3[nH]c(C4=C(O)c5nc(CO)n(C)c5C(=O)C4=O)nc3n2)CC1 |  | > 100 | > 100 |  | > 100 |  | > 100 | > 100 µM | > 100 | > 100 | > 100 |  |
